Measurements taken from ChEMBL document CHEMBL1201862, “PubChem BioAssay data set” (2004).
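1) Cells in 96-well plates. 2) Compound, 48 h, 5 concentrations. 3) Linear interpolation between surrounding doses. 4) Unreached endpoint = highest concentration. Abbreviation: GI50, concentration required for 50% inhibition of growth.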 Calls of active or inactive are those of the source. Cut-off read from the data, not from the text of the source: active = GI50 up to about 1.1 µM and inactive = higher.

Assays:
Test in all cases: NCI anticancer screen, dose series, 48 h
DMS-114 = test system: DMS-114
DMS-273 = test system: DMS-273
KM-20L2 = test system: KM-20L2
LXFL 529 = test system: LXFL 529
XF498 = test system: XF498
Hs-578T = test system: Hs-578T
SNB-78 = test system: SNB-78
HOP-18 = test system: HOP-18

| SMILES | GI50 (DMS-114) | GI50 (LXFL 529) | GI50 (Hs-578T) | GI50 (SNB-78) | also measured |
| --- | --- | --- | --- | --- | --- |
| NCCCOc1ccc([N+](=O)[O-])cc1Cl | > 100 µM (inactive) | 67.3 µM (inactive) | – | – | GI50 (DMS-273): > 100 µM (inactive); GI50 (KM-20L2): > 100 µM (inactive); GI50 (XF498): > 100 µM (inactive) |
| C=CC(Br)(CBr)CCC1OC1(C)C (stereo not given) | – | – | 15 µM (inactive) | – | – |
| COC(Cc1ccccc1)NC(C)=O (stereo not given) | – | – | > 100 µM (inactive) | – | – |
| COC(=O)C1=C(C(=O)OC)C(C(=O)OC)C(C(=O)OC)C(C(=O)OC)(C(=O)OC)C(C(=O)OC)=C1C(=O)OC (stereo not given) | 8.91 µM (inactive) | 9.73 µM (inactive) | 34.5 µM (inactive) | 18.4 µM (inactive) | GI50 (HOP-18): 17.1 µM (inactive); GI50 (KM-20L2): 17.7 µM (inactive); GI50 (XF498): 12.2 µM (inactive) |
| CCOC(=O)C(NCc1ccc2c(c1)OCO2)(NC(=O)c1ccccc1)C(F)(F)F (stereo not given) | – | – | > 100 µM (inactive) | – | – |
| O=C(O)C1=Cc2cccc3cccc(c23)C1=O | > 100 µM (inactive) | > 100 µM (inactive) | – | – | GI50 (HOP-18): > 100 µM (inactive); GI50 (DMS-273): > 100 µM (inactive); GI50 (KM-20L2): > 100 µM (inactive) |
| CON(C)C(=O)C1CCCO1 (stereo not given) | – | – | > 100 µM (inactive) | – | – |
| C[C@H](CCC(=O)O)[C@H]1CC[C@H]2[C@@H]3[C@@H](O)C[C@@H]4C[C@H](O)CC[C@]4(C)[C@H]3CC[C@]12C | – | – | 59.8 µM (inactive) | – | – |
| C/C(=C\c1csc(C)n1)[C@@H]1C[C@@H]2O[C@]2(C)CCC[C@H](C)[C@H](O)[C@@H](C)C(=O)C(C)(C)[C@@H](O)CC(=O)O1 [PATUPILONE] | – | – | < 0.0001 µM (active) | – | – |
| CC(C)(C)OC(=O)NCCC1SC2C=CC1C2 (stereo not given) | – | – | > 100 µM (inactive) | – | – |
| CC12c3c4cc(Br)cc3Oc3cc(Br)cc(c31)Oc1cc(Br)cc(c12)O4 | – | – | > 100 µM (inactive) | – | – |
| O=c1[nH]nc(Cc2ccc(Cl)cc2)n1/N=C/c1ccc([N+](=O)[O-])o1 | – | – | 2.25 µM (inactive) | – | – |
| O=C1C(Cl)=C(NCCOCCO)C(=O)c2c(O)ccc(O)c21 | – | 7.62 µM (inactive) | – | 12.7 µM (inactive) | GI50 (HOP-18): 15.6 µM (inactive); GI50 (DMS-273): 3.89 µM (inactive) |
| CC1CCc2sc3nc(S)n(C)c(=O)c3c2C1 (stereo not given) | – | – | 78.2 µM (inactive) | – | – |
| ClC(Cl)=C(Cl)C1(Cl)CC1COCc1ccccc1 (stereo not given) | 20.7 µM (inactive) | 51.6 µM (inactive) | – | 4.83 µM (inactive) | GI50 (DMS-273): 42.8 µM (inactive); GI50 (KM-20L2): 33.3 µM (inactive); GI50 (XF498): 23.6 µM (inactive) |
| O=C1C=C(c2[nH]c3ccccc3c2C2=CC(=O)c3ccccc3C2=O)C(=O)c2ccccc21 | 17.3 µM (inactive) | 37.3 µM (inactive) | – | 32.8 µM (inactive) | GI50 (HOP-18): > 100 µM (inactive); GI50 (DMS-273): 39.2 µM (inactive) |

| SMILES | GI50 (DMS-114) | GI50 (LXFL 529) | GI50 (Hs-578T) | GI50 (SNB-78) | also measured |
| --- | --- | --- | --- | --- | --- |
| O=C(N/C(=C\c1cc(Cl)ccc1Cl)c1nc2cc(Cl)ccc2[nH]1)c1ccccc1 | 15.4 µM (inactive) | 13.6 µM (inactive) | – | 21.7 µM (inactive) | GI50 (KM-20L2): 18.2 µM (inactive) |
| CC(C)=CCC/C(C)=C/CC/C(C)=C/[C@@H]1[C@@H](CO)[C@]1(C)CC/C=C(\C)CCC=C(C)C | – | – | > 100 µM (inactive) | – | – |
| Cc1cccc2c1C(=O)[C@](C)([C@]1(C)Nc3cccc(C)c3C1=O)N2 | – | – | 21.7 µM (inactive) | – | – |
| COc1cc2c3c(c1O)-c1c(ccc(OC)c1OC)CC3N(C)CC2 (stereo not given) | – | – | > 100 µM (inactive) | – | – |
| c1ccc2c(c1)CCc1cc3cc4c(nc3nc1-2)-c1ccccc1CC4 | – | > 100 µM (inactive) | – | > 100 µM (inactive) | GI50 (DMS-273): > 100 µM (inactive) |
| COc1cc(C=C2C(=O)OC(C)(C)OC2=O)cc(OC)c1OC | > 100 µM (inactive) | > 100 µM (inactive) | – | > 100 µM (inactive) | GI50 (HOP-18): > 100 µM (inactive); GI50 (DMS-273): > 100 µM (inactive); GI50 (KM-20L2): > 100 µM (inactive) |
| Cn1ccnc1Sc1ccc(/C=N/NC(=O)c2ccccc2[N+](=O)[O-])cc1[N+](=O)[O-] | – | – | > 100 µM (inactive) | – | – |
| C#CCOC(=O)C(N)CC(N)=O (stereo not given) | – | – | > 100 µM (inactive) | – | – |
| CC1(C)CC(=O)C(=CNC(=S)c2ccccc2)C(=O)C1 | – | – | > 100 µM (inactive) | – | – |
| Clc1ccc(Cc2nc3ccccc3o2)cc1 | – | – | > 100 µM (inactive) | – | – |
| CCOC(C)C(/C=N/NC(N)=S)=NNC(N)=S (stereo not given) [GLOXAZONE] | < 0.01 µM (active) | 0.0865 µM (active) | – | 53.7 µM (inactive) | – |
| O=c1ssc(Cl)c1Cl | – | – | > 10 µM (inactive) | – | – |
| O=C(NCCCl)Nc1ccccc1 | – | – | > 100 µM (inactive) | – | – |
| N#CC1CCCCCCCCCCC(=O)N(CCCl)C1=O (stereo not given) | > 100 µM (inactive) | > 100 µM (inactive) | – | > 100 µM (inactive) | GI50 (DMS-273): > 100 µM (inactive); GI50 (KM-20L2): > 100 µM (inactive); GI50 (XF498): > 100 µM (inactive) |
| COc1cc(OCc2nc3ccccc3n3cccc23)cc(OC)c1OC | – | – | 52.6 µM (inactive) | – | – |
| COC(=O)C(Cl)=C1CC1 | 31 µM (inactive) | 16 µM (inactive) | – | 49.1 µM (inactive) | GI50 (DMS-273): 31.6 µM (inactive); GI50 (KM-20L2): > 100 µM (inactive); GI50 (XF498): 29.4 µM (inactive) |
